# Experiments:
# Test in all cases: relative viability (nuclei count vs DMSO), 5 days (fraction); higher = more cells survive
# [1] = compound: CC(=O)c1c(C)c2cnc(Nc3ccc(N4CCNCC4)cn3)nc2n(C2CCCC2)c1=O [Palbociclib] + O=C(CCCCCCC(=O)Nc1ccccc1)NO [Vorinostat] (partner 1 µM)
# In short: (§1)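 Each reported value is a median over duplicate plates. It expresses relative viability: treated-well nuclei count divided by vehicle-well nuclei count. Lung cancer cell lines in 1536-well plates were dosed by pin tool a day after seeding, alone with one drug or with a fixed anchor-drug dose plus five library-drug doses (not always all listed) in √10 steps, and nuclei were counted after 5 days.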
# [2] = compound: CC(=O)c1c(C)c2cnc(Nc3ccc(N4CCNCC4)cn3)nc2n(C2CCCC2)c1=O [Palbociclib] + COc1cccc2cc(-c3nc([C@H]4CC[C@H](C(=O)O)CC4)n4ncnc(N)c34)[nH]c12 [OSI-027] (partner 0.5 µM)
# In short: as §1
# [3] = compound: CC(=O)c1c(C)c2cnc(Nc3ccc(N4CCNCC4)cn3)nc2n(C2CCCC2)c1=O [Palbociclib] + COc1cc2c(Oc3ccc(NC(=O)C4(C(=O)Nc5ccc(F)cc5)CC4)cc3F)ccnc2cc1OCCCN1CCOCC1 [Foretinib] (partner 0.25 µM)
# In short: as §1
# [4] = compound: CC(=O)c1c(C)c2cnc(Nc3ccc(N4CCNCC4)cn3)nc2n(C2CCCC2)c1=O [Palbociclib] + N=C(N)NC(=N)NCCc1ccccc1 [Phenformin] (partner 250 µM)
# In short: as §1
Cell Line,relative viability ([1]; first compound 0.01 µM),relative viability ([1]; first compound 0.03162 µM),relative viability ([1]; first compound 0.1 µM),relative viability ([1]; first compound 0.3162 µM),relative viability ([1]; first compound 1 µM),relative viability ([2]; first compound 0.01 µM),relative viability ([2]; first compound 0.03162 µM),relative viability ([2]; first compound 0.1 µM),relative viability ([2]; first compound 0.3162 µM),relative viability ([2]; first compound 1 µM),relative viability ([3]; first compound 0.01 µM),relative viability ([3]; first compound 0.03162 µM),relative viability ([3]; first compound 0.1 µM),relative viability ([3]; first compound 0.3162 µM),relative viability ([3]; first compound 1 µM),relative viability ([4]; first compound 0.01 µM),relative viability ([4]; first compound 0.03162 µM),relative viability ([4]; first compound 0.1 µM),relative viability ([4]; first compound 0.3162 µM),relative viability ([4]; first compound 1 µM)
201T,1.02,0.567,0.837,0.752,0.532,0.763,0.676,0.661,0.613,0.338,0.932,0.841,0.72,0.77,0.419,0.469,0.359,0.359,0.381,0.311
A549,,,,,,,,,,,0.925,0.831,0.754,0.635,0.43,0.205,0.0665,0.11,0.129,0.096
A-427,0.855,0.789,0.711,0.652,0.527,0.467,0.271,0.282,0.33,0.308,0.944,1.01,0.993,0.729,0.607,0.392,0.2,0.282,0.269,0.212
ABC-1,1.18,1.03,0.552,1.03,0.453,0.483,0.443,0.436,0.351,0.301,0.963,0.808,0.852,0.763,0.709,0.227,0.202,0.232,0.233,0.24
BEN,0.568,0.542,0.509,0.58,0.517,0.298,0.274,0.255,0.252,0.286,0.729,0.422,0.607,0.556,0.376,0.285,0.243,0.237,0.249,0.257
CAL-12T,0.781,0.747,0.595,0.581,0.505,0.766,0.546,0.441,0.446,0.316,1.01,0.898,0.901,0.791,0.674,0.603,0.475,0.429,0.421,0.324
COR-L23,0.461,0.346,0.328,0.244,0.223,0.763,0.6,0.491,0.521,0.39,0.95,0.745,0.911,0.729,0.58,0.438,0.37,0.304,0.345,0.263
COR-L 105,0.9,0.887,0.612,0.611,0.482,0.676,0.506,0.453,0.429,0.336,0.841,0.826,0.992,0.595,0.449,0.467,0.54,0.381,0.385,0.33
Calu-6,,,,,,,,,,,0.879,0.808,0.714,0.672,0.463,,,,,
ChaGo-K-1,0.726,,0.696,0.721,0.746,0.594,0.396,0.661,0.563,0.594,0.928,0.797,1.1,0.959,0.977,0.484,0.376,0.503,0.458,0.524
EBC-1,,,,,,,,,,,0.113,0.0957,0.0957,0.0852,0.0884,,,,,
EKVX,0.702,0.509,0.625,0.549,0.483,0.713,0.664,0.6,0.575,0.366,0.907,0.412,0.748,0.757,0.463,0.23,0.192,0.238,0.245,0.145
EMC-BAC-2,0.461,0.39,0.379,0.376,0.308,0.368,0.346,0.29,0.318,0.29,1,0.931,0.804,0.821,0.61,0.537,0.394,0.401,0.374,0.342
EPLC-272H,0.535,0.647,0.46,0.401,0.245,0.293,,0.257,0.254,0.213,0.794,,0.572,0.689,0.435,0.316,,0.265,0.291,0.198
H3255,0.907,0.688,0.687,0.68,0.549,0.597,0.49,0.405,0.469,0.382,0.879,0.898,0.693,0.641,0.57,0.38,0.361,0.319,0.368,0.287
HARA,0.446,,0.384,0.608,0.511,0.509,,0.272,0.303,0.122,0.828,,0.763,0.534,0.332,0.509,,0.309,0.258,0.203
HCC-15,0.871,,0.768,0.684,0.581,0.677,,0.549,0.54,0.426,1,,0.902,0.892,0.716,0.463,,0.405,0.421,0.323
HCC-44,1.09,1.08,1.15,1.03,1.13,0.487,0.492,0.512,0.582,0.482,,,,,,0.234,,0.171,0.223,0.204
HCC-78,0.502,0.38,0.415,0.418,0.299,0.424,0.382,0.315,0.319,0.254,0.54,0.453,0.481,0.509,0.364,0.727,0.624,0.554,0.44,0.318
HCC-366,0.388,,0.289,0.213,0.135,0.916,,0.722,0.731,0.482,0.919,,0.893,0.953,0.797,0.626,,0.645,0.427,0.396

Cell Line,relative viability ([1]; first compound 0.01 µM),relative viability ([1]; first compound 0.03162 µM),relative viability ([1]; first compound 0.1 µM),relative viability ([1]; first compound 0.3162 µM),relative viability ([1]; first compound 1 µM),relative viability ([2]; first compound 0.01 µM),relative viability ([2]; first compound 0.03162 µM),relative viability ([2]; first compound 0.1 µM),relative viability ([2]; first compound 0.3162 µM),relative viability ([2]; first compound 1 µM),relative viability ([3]; first compound 0.01 µM),relative viability ([3]; first compound 0.03162 µM),relative viability ([3]; first compound 0.1 µM),relative viability ([3]; first compound 0.3162 µM),relative viability ([3]; first compound 1 µM),relative viability ([4]; first compound 0.01 µM),relative viability ([4]; first compound 0.03162 µM),relative viability ([4]; first compound 0.1 µM),relative viability ([4]; first compound 0.3162 µM),relative viability ([4]; first compound 1 µM)
HCC-827,0.863,0.65,0.787,0.636,0.598,0.809,0.52,0.707,0.563,0.479,1.03,0.951,0.999,0.977,0.734,0.41,0.285,0.319,0.384,0.289
HOP-62,0.499,,0.423,0.482,0.395,0.793,,0.697,0.624,0.446,0.881,,1.02,0.958,0.735,0.642,,0.644,0.502,0.47
IA-LM,0.955,,0.661,0.724,0.312,,,,,,1.06,0.959,0.862,0.514,0.313,,,,,
LC-2-ad,0.712,0.351,0.561,0.561,0.475,0.746,,0.604,0.625,0.474,0.909,,0.687,0.687,0.481,0.573,,0.523,0.414,0.383
LCLC-97TM1,0.698,,0.423,0.363,0.249,0.586,0.353,0.349,0.219,0.221,0.861,0.883,0.854,0.67,0.514,0.41,0.32,0.414,0.351,0.227
LCLC-103H,0.743,0.512,0.62,0.668,0.445,0.432,0.368,0.406,0.358,0.302,0.782,0.619,0.8,0.522,0.481,0.33,0.28,0.318,0.248,0.223
LK-2,0.383,0.217,0.281,0.248,0.324,0.208,,0.182,0.212,0.162,1.12,,1.18,1.27,1.05,0.507,,0.305,0.309,0.38
LOU-NH91,1.02,0.623,0.695,0.675,0.673,0.706,0.587,0.46,0.505,0.44,0.957,0.86,0.678,0.646,0.533,0.832,0.563,0.503,0.504,0.472
LU99A,0.517,,0.435,0.587,0.399,0.305,0.274,0.221,0.238,0.223,0.782,0.82,0.765,0.724,0.583,0.851,0.507,0.688,0.837,0.602
LXF-289,0.77,0.268,0.66,0.782,0.672,0.815,0.411,0.697,0.734,0.561,0.977,0.926,0.955,0.896,0.828,0.51,0.294,0.452,0.462,0.378
NCI-H23,0.617,0.531,0.406,0.509,0.411,0.576,,0.502,0.463,0.408,0.954,,1.11,0.962,0.69,0.795,,0.704,0.781,0.506
NCI-H322M,0.837,0.784,0.602,0.55,0.454,0.553,0.499,0.385,0.435,0.446,0.977,0.776,0.616,0.641,0.414,0.741,0.605,0.553,0.502,0.409
NCI-H358,0.73,0.475,0.413,0.449,0.199,0.807,0.62,0.501,0.455,0.138,0.718,0.545,0.523,0.412,0.226,0.308,0.278,0.197,0.238,0.106
NCI-H441,0.817,0.708,0.589,0.569,0.405,0.56,0.394,0.407,0.405,0.213,0.75,0.965,0.571,0.701,0.373,0.896,0.627,0.623,0.57,0.35
NCI-H522,0.912,0.536,0.906,1.03,0.802,0.772,0.606,0.777,0.765,0.765,,,,,,0.623,0.592,0.586,0.644,1.19
NCI-H1299,,,,,,,,,,,1.05,0.996,1.02,0.942,0.754,,,,,
NCI-H1563,,,,,,0.75,0.776,0.74,0.735,0.534,0.972,0.89,0.821,0.853,0.8,0.709,0.636,0.639,0.654,0.537
NCI-H1648,0.869,0.426,0.386,0.388,0.398,0.264,,0.256,0.27,0.251,,,,,,,,,,
NCI-H1703,,,,,,,,,,,0.259,0.308,0.287,0.28,0.292,,,,,
NCI-H1792,,,,,,0.821,0.688,0.649,0.537,0.485,,,,,,0.389,0.237,0.209,0.193,0.1
